Experimental data as given in patent publication US8178506B2, “Oligomeric compounds and compositions for use in modulation of small non-coding RNAs” (Regulus Therapeutics Inc., priority 2003, dated 2012).
Values joined by “and” are separate entries in the source; they are usually repeats but may differ in a detail not shown here. Equal values may be shown once. In the oligonucleotide strings, read from the 5' end, every base follows the letter of its sugar. An asterisk marks phosphorothioate; unmarked linkages are phosphodiester. Other units and linkages are bracketed, terminal groups are in braces. A string of capitals states the bases alone. e = 2'-O-(2-methoxyethyl) (MOE); [5mC] = 5-methylcytosine; d = 2'-deoxy (DNA)

System: HeLa cells
Assay: Cell cycle assay in HeLa cells
Format: cell-based, human
Details: HeLa cells; for % cells in cell cycle phase: G1 / % cells in cell cycle phase: G2/M / % cells in cell cycle phase: S / % cells in cell cycle phase: aneuploid / % cells in cell cycle phase: subG1: 48 hours after treatment, relative to untreated control (UTC=100)
[1] = 150 nM oligomeric compound, 24 hours, relative to untreated control (UTC = 100)
[2] = 150 nM, 48 hours, relative to untreated control

Substance | % cells aneuploid [1] | % cells in cell cycle phase G1 [1] | % cells in cell cycle phase G2/M [1] | % cells in cell cycle phase S [1] | % cells in cell cycle phase subG1 [1] | % cells in cell cycle phase: G1 (150 nM oligomeric compound) | % cells in cell cycle phase: G2/M (150 nM oligomeric compound) | % cells in cell cycle phase: S (150 nM oligomeric compound) | % cells in cell cycle phase: aneuploid (150 nM oligomeric compound) | % cells in cell cycle phase: subG1 (150 nM oligomeric compound) [%] | % cells in cell cycle phase G1 [2] [%] | % cells in cell cycle phase G2/M [2] [%] | % cells in cell cycle phase S [2] [%] | % cells in cell cycle phase aneuploid [2] [%] | % cells in cell cycle phase subG1 [2] [%]
327906 (antisense eT*e[5mC]*eA*eT*eA*eG*e[5mC]*e[5mC]*e[5mC]*eT*eG*eT*eA*e[5mC]*eA*eA*eT*eG*e[5mC]*eT*eG*e[5mC]*eT) [compound 327906] | 65% | 153% | 107% | 47% | 228% | 100% | 103% | 98% | 83% | 57 |  |  |  |  | 
327907 (antisense eA*eG*e[5mC]*e[5mC]*eT*eA*eT*e[5mC]*e[5mC]*eT*eG*eG*eA*eT*eT*eA*e[5mC]*eT*eT*eG*eA*eA) [compound 327907] | 75% | 119% | 111% | 77% | 224% | 92% | 115% | 111% | 94% | 116 |  |  |  |  | 
327910 (antisense eT*eG*eA*eT*eA*eG*e[5mC]*e[5mC]*e[5mC]*eT*eG*eT*eA*e[5mC]*eA*eA*eT*eG*e[5mC]*eT*eG*e[5mC]*eT) [compound 327910] | 73% | 154% | 118% | 42% | 174% | 99% | 111% | 91% | 92% | 53 |  |  |  |  | 
327911 (antisense eG*e[5mC]*eT*eA*e[5mC]*e[5mC]*eT*eG*e[5mC]*eA*e[5mC]*eT*eG*eT*eA*eA*eG*e[5mC]*eA*e[5mC]*eT*eT*eT*eT) [compound 327911] | 104% | 130% | 122% | 62% | 158% | 99% | 109% | 96% | 101% | 65 |  |  |  |  | 
327919 (antisense eG*eA*eA*eA*e[5mC]*e[5mC]*e[5mC]*eA*eG*e[5mC]*eA*eG*eA*e[5mC]*eA*eA*eT*eG*eT*eA*eG*e[5mC]*eT) [compound 327919] | 96% | 92% | 109% | 103% | 85% | 80% | 139% | 122% | 104% | 104 |  |  |  |  | 
327922 (antisense eT*e[5mC]*eA*eG*eT*eT*eT*eT*eG*e[5mC]*eA*eT*eG*eG*eA*eT*eT*eT*eG*e[5mC]*eA*e[5mC]*eA) [compound 327922] | 104% | 97% | 114% | 96% | 131% | 96% | 109% | 105% | 91% | 81 |  |  |  |  | 
327933 (antisense eA*eA*eG*eG*eG*eA*eT*eT*e[5mC]*e[5mC]*eT*eG*eG*eG*eA*eA*eA*eA*e[5mC]*eT*eG*eG*eA*e[5mC]) [compound 327933] | 92% and 47% | 102% and 90% | 131% and 140% | 83% and 91% | 192% and 190% | 76% and 80% | 138% and 123% | 135% and 133% | 86% and 75% |  |  |  |  |  | 
327934 (antisense eG*eG*eT*eA*e[5mC]*eA*eA*eT*e[5mC]*eA*eA*e[5mC]*eG*eG*eT*e[5mC]*eG*eA*eT*eG*eG*eT) [compound 327934] | 55% and 77% | 87% and 118% | 160% and 137% | 85% and 66% | 278% and 204% | 62% and 66% | 152% and 155% | 156% and 148% | 92% and 117% |  |  |  |  |  | 
327956 (antisense e[5mC]*eA*e[5mC]*eA*eG*eT*eT*eG*e[5mC]*e[5mC]*eA*eG*e[5mC]*eT*eG*eA*eG*eA*eT*eT*eA) [compound 327956] | 61% | 124% | 120% | 68% | 120% | 91% | 121% | 106% | 110% | 184 |  |  |  |  | 
328111 (antisense eT*e[5mC]*e[5mC]*eG*eA*eG*eT*e[5mC]*eG*eG*eA*eG*eG*eA*eG*eG*eA*eG*eG*eA*eA) [compound 328111] | 50% | 127% | 99% | 75% | 62% | 84% | 119% | 126% | 90% | 371 |  |  |  |  | 
328115 (antisense eA*eG*eA*eA*eG*eG*eT*eG*eG*eG*eG*eA*eG*e[5mC]*eA*eG*e[5mC]*eG*eT*e[5mC]*eA) [compound 328115] | 59% | 90% | 147% | 87% | 177% | 92% | 107% | 114% | 86% | 195 |  |  |  |  | 
328119 (antisense eA*eA*eT*eA*eA*e[5mC]*eA*e[5mC]*eA*e[5mC]*eA*eT*e[5mC]*e[5mC]*eA*e[5mC]*eT*eT*eT*eA*eA) [compound 328119] | 83% | 100% | 112% | 94% | 75% | 75% | 124% | 145% | 81% | 767 |  |  |  |  | 
328136 (eA*eA*e[5mC]*eT*eA*e[5mC]*eT*eT*e[5mC]*e[5mC]*eA*eG*eA*eG*e[5mC]*eA*eG*eG*eT*eG*eA; anti-miR) [compound 328136] | 51% | 125% | 88% | 81% | 330% | 83% | 113% | 133% | 85% | 140 |  |  |  |  | 
328362 (eT*eG*eT*eG*eT*dT*dT*dT*d[5mC]*dT*dG*dA*d[5mC]*dT*d[5mC]*eA*eG*eT*e[5mC]*eA) [compound 328362] | 66% | 101% | 126% | 87% | 114% | 96% | 108% | 104% | 97% | 87 |  |  |  |  | 
328382 (e[5mC]*eA*eG*eA*e[5mC]*dT*d[5mC]*d[5mC]*d[5mC]*dA*dA*d[5mC]*dT*dG*dA*e[5mC]*e[5mC]*eA*eG*eA) [compound 328382] |  | 118% and 102% | 116% and 144% | 76% and 80% |  | 102% and 83% | 103% and 120% | 92% and 122% | 109% and 133% |  |  |  |  |  | 
328759 (antisense eG*eA*eG*eG*eG*dA*dT*dT*dG*dT*dA*dT*dG*dA*dA*e[5mC]*eA*eT*e[5mC]*eT) [compound 328759] | 184% | 88% | 168% | 78% | 239% | 50% | 343% | 31% | 148% | 1744 | 40 | 203 | 82 | 223 | 797
340350 (antisense TGCTCAATAAATACCCGTTGAA; all 2'-MOE, all phosphorothioate, methylation of C not given here) [compound 340350] | 94% | 183% | 104% | 54% | 218% | 76% | 134% | 126% | 125% | 1144 | 101 | 112 | 94 | 177 | 132
